# Reference: paper PMC5620609 (Pharmaceuticals, 2017)
# Columns and labels:
# [1] = test system: human colon cancer cell line HCT-116; experiment: In vitro growth inhibition (CellTiter-Glo), HCT-116; assay type: cell-based; settings: HCT 116 TP53(-/-), read-out: GI50 (concentration of drug that inhibited 50% of cell growth), 72 h exposure
# Method: Cells were grown in an appropriate medium for the cell line of interest; 96 well plates of each cell line were seeded with 5000 cells per well and left overnight. Drug exposed cells were incubated at 37 °C for 72 h. At the end of the 72 h exposure period, plates were removed for the CellTiter-Glo® assay. Luminescence was recorded on a Synergy 4.0. Assays were performed in triplicate.
# RNR = target: T1, RNR (Homo sapiens, UniProt P23921); experiment: RNR inhibition whole cell assay (HPLC of nucleotides from HeLa cell extracts); assay type: cell-based; settings: 50 µM, 16 h
# T1 construct: endogenous in cells; host or cells: HeLa
# T1 sequence (P23921 1-792): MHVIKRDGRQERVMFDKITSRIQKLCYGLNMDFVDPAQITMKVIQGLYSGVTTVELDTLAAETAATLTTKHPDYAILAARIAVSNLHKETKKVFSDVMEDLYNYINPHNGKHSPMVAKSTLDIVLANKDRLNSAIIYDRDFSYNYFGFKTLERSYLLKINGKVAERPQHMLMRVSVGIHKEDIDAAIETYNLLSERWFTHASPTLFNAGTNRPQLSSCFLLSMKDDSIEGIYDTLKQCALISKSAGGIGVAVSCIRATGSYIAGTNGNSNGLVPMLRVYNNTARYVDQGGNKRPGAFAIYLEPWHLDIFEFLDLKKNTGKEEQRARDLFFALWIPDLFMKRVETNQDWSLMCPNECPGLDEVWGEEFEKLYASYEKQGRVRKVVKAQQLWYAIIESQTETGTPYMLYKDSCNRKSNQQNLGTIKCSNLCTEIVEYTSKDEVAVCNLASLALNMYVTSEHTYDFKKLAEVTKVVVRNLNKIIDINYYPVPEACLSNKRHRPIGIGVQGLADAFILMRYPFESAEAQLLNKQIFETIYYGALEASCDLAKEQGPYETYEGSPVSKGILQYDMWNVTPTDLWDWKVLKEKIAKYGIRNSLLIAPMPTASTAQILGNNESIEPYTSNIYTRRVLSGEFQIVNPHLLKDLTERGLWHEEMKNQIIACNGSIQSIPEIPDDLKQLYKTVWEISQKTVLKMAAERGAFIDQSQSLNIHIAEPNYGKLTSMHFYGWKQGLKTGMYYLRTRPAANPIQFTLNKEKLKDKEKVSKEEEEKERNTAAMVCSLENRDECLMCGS
# T1 sequence (P31350 1-389 partner): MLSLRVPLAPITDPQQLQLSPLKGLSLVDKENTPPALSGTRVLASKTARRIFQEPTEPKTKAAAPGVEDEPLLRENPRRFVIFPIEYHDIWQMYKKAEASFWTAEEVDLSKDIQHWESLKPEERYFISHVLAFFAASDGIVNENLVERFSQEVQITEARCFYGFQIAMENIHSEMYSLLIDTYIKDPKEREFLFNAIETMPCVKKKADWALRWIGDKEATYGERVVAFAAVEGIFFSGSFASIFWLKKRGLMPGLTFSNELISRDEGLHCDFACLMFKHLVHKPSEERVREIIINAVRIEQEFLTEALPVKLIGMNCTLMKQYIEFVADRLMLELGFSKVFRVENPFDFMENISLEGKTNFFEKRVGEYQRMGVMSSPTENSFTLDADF
# Description: Gemcitabine was used as a positive control.
# The method used to extract and quantitate nucleotides followed previously reported procedures.
# UACC-257 = experiment: NCI 60 cell line panel: UACC-257; assay type: cell-based, human; settings: Melanoma, TP53 wild type
# Description: (§1) Details of the NCI 60 One Dose Screen are well known and available online.
# RPMI-8226 = experiment: NCI 60 cell line panel: RPMI-8226; assay type: cell-based, human; settings: Leukemia, TP53 null/mutant
# Description: as §1
# SNB-19 = experiment: NCI 60 cell line panel: SNB-19; assay type: cell-based, human; settings: CNS cancer, TP53 null/mutant
# Description: as §1
# K-562 = experiment: NCI 60 cell line panel: K-562; assay type: cell-based, human; settings: Leukemia, TP53 null/mutant
# Description: as §1
# NCI 60 cell line panel = experiment: NCI 60 cell line panel, allocation of cell lines by growth inhibition at 10 µM; assay type: cell-based, human
# Description: as §1
# NCI/ADR-RES = experiment: NCI 60 cell line panel: NCI/ADR-RES; assay type: cell-based, human; settings: Ovarian cancer, TP53 null/mutant
# Description: as §1
# NCI-H23 = experiment: NCI 60 cell line panel: NCI-H23; assay type: cell-based, human; settings: NSCL, TP53 null/mutant
# Description: as §1
# M14 = experiment: NCI 60 cell line panel: M14; assay type: cell-based, human; settings: Melanoma, TP53 null/mutant
# Description: as §1
# in vivo = settings: nude, mouse, iv
# Method: Three mice were placed in a dose group on the first day of treatment (Day 1). […] Animals were observed daily for mortality and moribundity. Body weights were measured daily starting on day 1.
# HCC-2998 = experiment: NCI 60 cell line panel: HCC-2998; assay type: cell-based, human; settings: Colon cancer, TP53 null/mutant
# Description: as §1
# UO-31 = experiment: NCI 60 cell line panel: UO-31; assay type: cell-based, human; settings: Renal cancer, TP53 wild type
# Description: as §1
# HOP-92 = experiment: NCI 60 cell line panel: HOP-92; assay type: cell-based, human; settings: NSCL, TP53 null/mutant
# Description: as §1
# NCI-H322M = experiment: NCI 60 cell line panel: NCI-H322M; assay type: cell-based, human; settings: NSCL, TP53 null/mutant
# Description: as §1
# [2] = 55 cell lines tested for both compounds
structure (smiles),measurement,setting,value
"Nc1ncn([C@@H]2O[C@H](CO)[C@@H](O)C2(F)F)c(=O)n1 [NUC013, 5-aza-2′,2′-difluroro deoxycytidine]",GI50,[1],4.54 µM
same,ADP concentration,RNR,"13,845"
same,ATP concentration,RNR,"21,335"
same,CTP concentration,RNR,1279
same,GTP concentration,RNR,2006
same,UTP concentration,RNR,4070
same,"dATP, peak area",RNR,10.2 AU
same,"dGDP, peak area",RNR,5.6 AU
same,"dTDP, peak area",RNR,18.65 AU
same,"dUTP, peak area",RNR,8.8 AU
same,Growth (%) at 10 µM,UACC-257,77.54%
same,Growth (%) at 10 µM,RPMI-8226,39.24%
same,Growth (%) at 10 µM,SNB-19,58.88%
same,Growth (%) at 10 µM,K-562,65.66%
same,Number of cell lines with growth inhibition at 10 µM >50%,NCI 60 cell line panel; [2],24
same,Number of cell lines with growth inhibition at 10 µM ≤50%,NCI 60 cell line panel; [2],31
same,Number of cell lines with growth inhibition at 10 µM >50%,NCI 60 cell line panel; TP53 (Null/Mutant) cell lines,13
same,Number of cell lines with growth inhibition at 10 µM ≤50%,NCI 60 cell line panel; TP53 (Null/Mutant) cell lines,27
same,Number of cell lines with growth inhibition at 10 µM >50%,NCI 60 cell line panel; TP53 (WT) cell lines,11
same,Number of cell lines with growth inhibition at 10 µM ≤50%,NCI 60 cell line panel; TP53 (WT) cell lines,4
same,Growth (%) at 10 µM,NCI/ADR-RES,42.13%
same,Growth (%) at 10 µM,NCI-H23,30.61%
same,Growth (%) at 10 µM,M14,15.55%
same,MTD at 3 weeks,in vivo,> 120 mg/kg
same,Growth (%) at 10 µM,HCC-2998,60.44%
same,Growth (%) at 10 µM,UO-31,39.00%
same,Growth (%) at 10 µM,HOP-92,34.34%
same,Growth (%) at 10 µM,NCI-H322M,70.00%
